Values joined by “and” are separate entries in the source; they are usually repeats but may differ in a detail not shown here. Identical values can stand only once. Toxic doses and inconclusive results are not listed. Peptide text beside a SMILES is read from it. * marks the point of attachment. Bn = c1ccc(C*)cc1
Test system: P388 leukemia ip, CD2F1 mice, survival T/C
Experiment: NCI In Vivo Anticancer Drug Screen. Data for tumor model P388 Leukemia (intraperitoneal) in CD2F1 (CDF1) mice
Conditions: endpoint: median survival time, higher = longer survival
Method in brief: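 Mice carrying the transplanted tumor received test compound or vehicle. Survival was recorded in each group, and the value is the treated-group measurement divided by that of the vehicle-treated control group.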

[1] = dose: 60.0 mg/kg/injection, schedule: Q01DX005 (ip), vehicle: Klucel (hydroxypropylcellulose) (HPC)
[2] = dose: 120.0 mg/kg/injection, schedule: Q01DX005 (ip), vehicle: Klucel (hydroxypropylcellulose) (HPC)
[3] = dose: 240.0 mg/kg/injection, schedule: Q01DX005 (ip), vehicle: Klucel (hydroxypropylcellulose) (HPC)
[4] = dose: 12.5 mg/kg/injection, schedule: Q01DX009 (ip), vehicle: Klucel (hydroxypropylcellulose) (HPC)
[5] = dose: 25.0 mg/kg/injection, schedule: Q01DX009 (ip), vehicle: Klucel (hydroxypropylcellulose) (HPC)
[6] = dose: 50.0 mg/kg/injection, schedule: Q01DX009 (ip), vehicle: Klucel (hydroxypropylcellulose) (HPC)
[7] = dose: 60.0 mg/kg/injection, schedule: Q01DX005 (ip), vehicle: saline with Tween-80
[8] = dose: 120.0 mg/kg/injection, schedule: Q01DX005 (ip), vehicle: saline with Tween-80
[9] = dose: 240.0 mg/kg/injection, schedule: Q01DX005 (ip), vehicle: saline with Tween-80
[10] = dose: 100.0 mg/kg/injection, schedule: Q01DX009 (ip), vehicle: Klucel (hydroxypropylcellulose) (HPC)
[11] = dose: 200.0 mg/kg/injection, schedule: Q01DX009 (ip), vehicle: Klucel (hydroxypropylcellulose) (HPC)
[12] = dose: 12.5 mg/kg/injection, schedule: Q01DX005 (ip), vehicle: saline with Tween-80
[13] = dose: 25.0 mg/kg/injection, schedule: Q01DX005 (ip), vehicle: saline with Tween-80
[14] = dose: 50.0 mg/kg/injection, schedule: Q01DX005 (ip), vehicle: saline with Tween-80
[15] = dose: 50.0 mg/kg/injection, schedule: Q01DX009 (ip), vehicle: saline with Tween-80
[16] = dose: 100.0 mg/kg/injection, schedule: Q01DX009 (ip), vehicle: saline with Tween-80
[17] = dose: 200.0 mg/kg/injection, schedule: Q01DX009 (ip), vehicle: saline with Tween-80

With `Cc1cc(C(=C2C=CC(=Nc3ccc(S(=O)(=O)O)cc3)C=C2)c2ccc(Nc3ccc(S(=O)(=O)O)cc3)cc2)cc(S(=O)(=O)O)c1N` the T/C (dose: 50.0 mg/kg/injection, schedule: Q01DX005 (ip), vehicle: suspension in saline) was 102 % of control, the T/C (dose: 100.0 mg/kg/injection, schedule: Q01DX005 (ip), vehicle: suspension in saline) was 99 % of control and the T/C (dose: 200.0 mg/kg/injection, schedule: Q01DX005 (ip), vehicle: suspension in saline) was 99 % of control.
In the case of `O=C(O)c1cccc(-c2c3ccc(=O)cc-3oc3cc(O)ccc23)c1`, the T/C [1] is reported as 104 % of control, the T/C [2] is reported as 113 % of control and the T/C [3] is reported as 110 % of control.
In the case of `CSc1nc(Cl)cc(Sc2nc(N)nc3nc[nH]c23)n1`, the T/C [4] is reported as 98 % of control, the T/C [5] is reported as 101 % of control and 107 % of control and the T/C [6] is reported as 123 % of control and 124 % of control.
In the case of `c1nnc(NC(Nc2nncs2)C2CCCCC2)s1`, the T/C (dose: 30.0 mg/kg/injection, schedule: Q01DX005 (ip), vehicle: saline with Tween-80) is reported as 98 % of control, the T/C [7] is reported as 95 % of control and the T/C [8] is reported as 90 % of control and 92 % of control. The T/C [9] was 121 % of control.
`CC(C)C(O)Cc1cc(=O)[nH]c2ccccc12` (stereo not given) was tested, and the T/C (dose: 100.0 mg/kg/injection, schedule: Q04DX002 (ip), vehicle: saline with Tween-80) was 87 % of control, the T/C (dose: 200.0 mg/kg/injection, schedule: Q04DX002 (ip), vehicle: saline with Tween-80) was 87 % of control and the T/C (dose: 400.0 mg/kg/injection, schedule: Q04DX002 (ip), vehicle: saline with Tween-80) was 86 % of control.
`CCOc1ccc2ccc3ccc(OCC)nc3c2n1` was tested, and the T/C [7] was 89 % of control, the T/C [8] was 98 % of control and the T/C [9] was 95 % of control.
In the case of `CC(C)=CCCc1ccc2c(c1)C(=O)c1cc3c(cc1C2=O)OCO3`, the T/C (dose: 3.75 mg/kg/injection, schedule: Q01DX005 (ip), vehicle: saline with Tween-80) is reported as 101 % of control, the T/C (dose: 7.5 mg/kg/injection, schedule: Q01DX005 (ip), vehicle: saline with Tween-80) is reported as 91 % of control and the T/C (dose: 15.0 mg/kg/injection, schedule: Q01DX005 (ip), vehicle: saline with Tween-80) is reported as 98 % of control and 104 % of control. The T/C [7] was 87 % of control.
In the case of `OCC1OC2OCCOC2OC1CO` (stereo not given), the T/C (dose: 100.0 mg/kg/injection, schedule: Q01DX001 (ip), vehicle: saline) is reported as 102 % of control, the T/C (dose: 200.0 mg/kg/injection, schedule: Q01DX001 (ip), vehicle: saline) is reported as 96 % of control and the T/C (dose: 400.0 mg/kg/injection, schedule: Q01DX001 (ip), vehicle: saline) is reported as 102 % of control.
`NCC(=O)NCC(=O)NC(Cc1ccc(OCc2ccccc2)cc1)C(=O)NC(CCCN=C(N)N)C(=O)O` (stereo not given) (H-GGY(Bn)R-OH; configuration not given here) was tested, and the T/C (dose: 60.0 mg/kg/injection, schedule: Q01DX005 (ip), vehicle: saline) was 95 % of control, the T/C (dose: 120.0 mg/kg/injection, schedule: Q01DX005 (ip), vehicle: saline) was 100 % of control and the T/C (dose: 240.0 mg/kg/injection, schedule: Q01DX005 (ip), vehicle: saline) was 100 % of control.
In the case of `CCOC(=O)CNC(=O)C(CSSCC(NC(=O)OCc1ccccc1)C(=O)O)NC(=O)OCc1ccccc1` (stereo not given), the T/C (dose: 50.0 mg/kg/injection, schedule: Q01DX005 (ip), vehicle: Klucel (hydroxypropylcellulose) (HPC)) is reported as 97 % of control, the T/C (dose: 100.0 mg/kg/injection, schedule: Q01DX005 (ip), vehicle: Klucel (hydroxypropylcellulose) (HPC)) is reported as 97 % of control and the T/C (dose: 200.0 mg/kg/injection, schedule: Q01DX005 (ip), vehicle: Klucel (hydroxypropylcellulose) (HPC)) is reported as 99 % of control.
For `CCN(CC)P(=S)(c1ccccc1CCP(=S)(c1ccccc1)c1ccccc1)N(CC)CC`, the T/C [7] was 92 % of control, the T/C [8] was 93 % of control and the T/C [9] was 91 % of control.
`CCOC(=O)NC1CCC2(C)CCCCC2C1` (stereo not given) was tested, and the T/C (dose: 50.0 mg/kg/injection, schedule: Q01DX009 (ip), vehicle: saline) was 100 % of control, the T/C (dose: 100.0 mg/kg/injection, schedule: Q01DX009 (ip), vehicle: saline) was 97 % of control and the T/C (dose: 200.0 mg/kg/injection, schedule: Q01DX009 (ip), vehicle: saline) was 109 % of control.
For `CCc1c(C)c(SC)n(C)c(=O)c1C#N`, the T/C [5] was 99 % of control, the T/C [6] was 100 % of control and the T/C [10] was 97 % of control. The T/C [11] was 91 % of control.
In the case of `CN(C)c1ccc2cc(-n3nnc4cc([N+](=O)[O-])ccc43)c(=O)oc2c1`, the T/C [12] is reported as 100 % of control, the T/C [13] is reported as 99 % of control and the T/C [14] is reported as 90 % of control.
For `CC(=O)OC1C2C=CC1C=C2` (stereo not given), the T/C [15] was 104 % of control, the T/C [16] was 93 % of control and the T/C [17] was 100 % of control.
In the case of `Clc1ccc(C2N(Cc3ccccc3)CCC3CCCCN32)cc1Cl` (stereo not given), the T/C [15] is reported as 87 % of control and the T/C [16] is reported as 91 % of control.
In the case of `CCn1c2ccccc2c2cc(NC(=O)Nc3ccc4c(c3)c3ccccc3n4CC)ccc21`, the T/C [14] is reported as 90 % of control, the T/C (dose: 100.0 mg/kg/injection, schedule: Q01DX005 (ip), vehicle: saline with Tween-80) is reported as 97 % of control and the T/C (dose: 200.0 mg/kg/injection, schedule: Q01DX005 (ip), vehicle: saline with Tween-80) is reported as 109 % of control.
In the case of `CC(C)CC1NC(=O)C2N=C(OC2C)C2CSSCC(NC(=O)c3csc1n3)C1=NC(C(=O)NC(CC(C)C)c3nc(cs3)C(=O)N2)C(C)O1` (stereo not given), the T/C (dose: 0.2 mg/kg/injection, schedule: Q01DX005 (ip), vehicle: DMSO) is reported as 97 % of control, the T/C (dose: 0.4 mg/kg/injection, schedule: Q01DX005 (ip), vehicle: DMSO) is reported as 96 % of control and the T/C (dose: 0.8 mg/kg/injection, schedule: Q01DX005 (ip), vehicle: DMSO) is reported as 90 % of control. For the same compound, the T/C (dose: 1.5 mg/kg/injection, schedule: Q01DX005 (ip), vehicle: DMSO) was 97 % of control.
With `Cc1cccc(NC(=O)Nc2ccc(F)cc2)n1` the T/C [1] was 101 % of control, the T/C [2] was 96 % of control and the T/C [3] was 100 % of control.
`CCN(CC)CCNc1ccc(COC(=O)OC)c2sc3ccccc3c(=O)c12` was tested, and the T/C (dose: 2.5 mg/kg/injection, schedule: Q01DX005 (ip), vehicle: saline with Tween-80) was 118 % of control, the T/C (dose: 5.0 mg/kg/injection, schedule: Q01DX005 (ip), vehicle: saline with Tween-80) was 124 % of control and the T/C (dose: 6.25 mg/kg/injection, schedule: Q01DX005 (ip), vehicle: saline with Tween-80) was 120 % of control. For the same compound, the T/C (dose: 10.0 mg/kg/injection, schedule: Q01DX005 (ip), vehicle: saline with Tween-80) was 124 % of control, the T/C [12] was 111 % of control and the T/C (dose: 20.0 mg/kg/injection, schedule: Q01DX005 (ip), vehicle: saline with Tween-80) was 122 % of control.
For `C=CCNCC(O)C(F)(F)C(F)(F)C(F)(F)C(F)(F)C(F)(F)C(F)(F)F` (stereo not given), the T/C [7] was 101 % of control, the T/C [8] was 101 % of control and the T/C [9] was 109 % of control.
In the case of `O=C1NC2(CCCCC2)C(=O)N1CCCN(CCCl)CCCl`, the T/C (dose: 1.5 mg/kg/injection, schedule: Q01DX005 (ip), vehicle: saline) is reported as 121 % of control, the T/C (dose: 6.0 mg/kg/injection, schedule: Q01DX005 (ip), vehicle: saline) is reported as 153 % of control and 156 % of control and the T/C (dose: 12.0 mg/kg/injection, schedule: Q01DX005 (ip), vehicle: saline) is reported as 178 % of control and 200 % of control and 208 % of control. For the same compound, the T/C (dose: 24.0 mg/kg/injection, schedule: Q01DX005 (ip), vehicle: saline) was 162 % of control and 210 % of control.
For `Clc1ccc(C[n+]2ccccc2)cc1Cl`, the T/C (dose: 5.0 mg/kg/injection, schedule: Q04DX003 (ip), vehicle: saline) was 120 % of control, the T/C (dose: 10.0 mg/kg/injection, schedule: Q04DX003 (ip), vehicle: saline) was 110 % of control and the T/C (dose: 20.0 mg/kg/injection, schedule: Q04DX003 (ip), vehicle: saline) was 110 % of control.
With `CCCCOC(OCCCC)C(C)N` (stereo not given) the T/C [12] was 108 % of control, the T/C [13] was 106 % of control and the T/C [14] was 103 % of control and 107 % of control.
For `[Cl][Pt+2][Cl].[NH-]c1cccc(C(F)(F)F)c1.[NH-]c1cccc(C(F)(F)F)c1`, the T/C (dose: 3.12 mg/kg/injection, schedule: Q01DX009 (ip), vehicle: Klucel (hydroxypropylcellulose) (HPC)) was 103 % of control and 111 % of control, the T/C (dose: 6.25 mg/kg/injection, schedule: Q01DX009 (ip), vehicle: Klucel (hydroxypropylcellulose) (HPC)) was 97 % of control and the T/C [4] was 111 % of control. For the same compound, the T/C [5] was 106 % of control.
For `COC(=O)/C=C/N1CCCC1`, the T/C (dose: 25.0 mg/kg/injection, schedule: Q01DX009 (ip), vehicle: saline with Tween-80) was 101 % of control, the T/C [15] was 108 % of control and the T/C [16] was 101 % of control. The T/C [17] was 92 % of control.
`CN=C1CN=C(OP(=O)(N2CCOCC2)N2CCOCC2)c2cc(Cl)ccc2N1` was tested, and the T/C [6] was 98 % of control, the T/C [10] was 101 % of control and the T/C [11] was 100 % of control.
